Read-outs that look alike come from different tables or passages of the source.
Assays:
[1] = test system: L. infantum axenic amastigotes; assay: Antileishmanial activity on L. infantum axenic amastigotes (luciferase luminescence); assay type: cell-based, Leishmania infantum; settings: for IC50 / activity against L. infantum (in words): axenic amastigotes; for IC50: 48 h incubation, mean (standard deviation), three independent experiments; for S.I. (Selectivity Index) = CC50/IC50: CC50 J774A.1 / IC50 L. infantum axenic amastigotes
Protocol: (§1) Selected compounds were evaluated for their leishmanicidal ability as previously described, through examining their activity on L. infantum axenic amastigotes, and the results are expressed in Table 2 as IC50 values. In parallel, evaluation of the cytotoxicity of test compounds was performed by MTT assay using the J774A.1 macrophage cell line. Results are presented as CC50 values.
4.2. Bioassay Procedures: Antileishmanial Activity on L. infantum Axenic Amastigotes
L. infantum promastigotes (MHOM/MA/67/ITMAP-263, CNR Leishmania, Montpellier, France, expressing luciferase activity) were cultivated in RPMI 1640 medium supplemented with 10% foetal calf serum (FCS), 2 mM L-glutamine and antibiotics (100 U/mL penicillin and 100 μg/mL streptomycin) and harvested in the logarithmic phase of growth by centrifugation at 900× g for 10 min. The supernatant was carefully removed and replaced by the same volume of RPMI 1640 complete medium at pH 5.4, and then incubated for 24 h at 24 °C. The acidified promastigotes were then incubated for 24 h at 37 °C in a ventilated flask to transform promastigotes into axenic amastigotes. The effects of the tested compounds on the growth of L. infantum axenic amastigotes were assessed as follows. L. infantum amastigotes were incubated at a density of 2 × 10^6 parasites/mL in sterile 96-well plates with various concentrations of compounds dissolved in DMSO (final concentration less than 0.5% v/v), in duplicate. Appropriate controls, DMSO and amphotericin, were added to each set of experiments. After a 48 h incubation period at 37 °C, each plate-well was then microscopically examined to detect any precipitate formation. To estimate the luciferase activity of axenic amastigotes, 80 μL of each well were transferred to white 96-well plates, Steady Glow® reagent (Promega, Charbonnières-les-Bains, France) was added according to the manufacturer’s instructions, and plates were incubated for 2 min. The luminescence was measured using a Microbeta Luminescence Counter (Perkin Elmer, Villebon-sur-Yvette, France). The inhibitory concentration 50% (IC50) was defined as the concentration of drug required to inhibit by 50% the metabolic activity of L. infantum amastigotes compared to control. IC50 values were calculated by non-linear regression analysis on dose response curves, using the TableCurve 2D V5 software (Systat Software, San Jose, CA, USA). IC50 values represent the mean of three independent experiments.

[2] = test system: intracellular amastigotes of L. infantum; design: method as in PMID 32258470; settings: cited from earlier work
[3] = test system: axenic amastigotes of L. infantum; design: method as in PMID 32258470; settings: cited from earlier work
[4] = test system: amastigotes of L. infantum; design: method as in PMID 29935351; settings: cited from earlier work
[5] = test system: amastigotes of Trypanosoma cruzi; design: method as in PMID 29935351; settings: cited from earlier work
L. (V) panamensis = settings: read-out: EC50 against L. (V) panamensis, cited from earlier work
[6] = design: method as in PMID 29286346; settings: cited from earlier work
L. braziliensis = test system: L. braziliensis; design: method as in PMID 32734890; settings: topical application, co-formulated with saponins; cited from earlier work
L. pifanoi = test system: L. pifanoi; design: method as in PMID 32734890; settings: topical application, co-formulated with saponins; cited from earlier work
[7] = Cytotoxicity by MTT assay on J774A.1 macrophage cell line; assay type: cell-based, mouse; settings: mouse, J774A.1 macrophage cells; MTT, 72 h incubation; mean (standard deviation)
Protocol: as §1
(§2) 4.3. Cytotoxicity Evaluation on J774A.1 Cells
(§3) Evaluation of the cytotoxicity of test compounds was performed by MTT assay using the J774A.1 cell line (mouse macrophage cell line, Sigma-Aldrich). Briefly, cells (5 × 10^4 cells/mL) in 100 µL of complete medium, [DMEM High glucose supplemented with 10% fetal calf serum (FCS), 2 mM L-glutamine and antibiotics (100 U/mL penicillin and 100 µg/mL streptomycin)] were seeded into each well of 96-well plates and incubated at 37 °C in a humidified 5% CO2 with 95% air atmosphere. After a 24 h incubation, 100 µL of medium with various product concentrations and appropriate controls were added and the plates were incubated for 72 h at 37 °C. Each plate-well was then examined under the microscope to detect possible precipitate formation before the medium was aspirated from the wells. 100 µL of MTT solution (0.5 mg/mL in RPMI) was then added to each well. Cells were incubated for 2 h at 37 °C. After this time, the MTT solution was removed and DMSO (100 µL) was added to dissolve the resulting formazan crystals. Plates were shaken vigorously (300 rpm) for 5 min. The absorbance was measured at 570 nm with a microplate spectrophotometer. DMSO was used as blank and doxorubicin (Sigma Aldrich, Saint-Quentin-Fallavier, France) as positive control. CC50 values were calculated by non-linear regression analysis on dose–response curves, using the TableCurve 2D V5 software.

J774A.1 cells = assay: as above; assay type: cell-based, mouse
Protocol: as §1, §2, §3

| Compound | IC50 ([1]; Leishmania infantum) | S.I. (Selectivity Index) = CC50/IC50 [1] | CC50 at 72 h [7] | other results |
| --- | --- | --- | --- | --- |
| C[C@@H]1[C@H](O)[C@@H](C)/C=C/C=C/C=C/C=C/C=C/C=C/C=C/[C@H](O[C@@H]2O[C@H](C)[C@@H](O)[C@H](N)[C@@H]2O)C[C@@H]2O[C@](O)(C[C@@H](O)C[C@@H](O)[C@H](O)CC[C@@H](O)C[C@@H](O)CC(=O)O[C@H]1C)C[C@H](O)[C@H]2C(=O)O [Amphotericin B, reference compound] | 0.072 µM | – | – | – |
| CCCCCCCCNCc1ccc2c(c1)C(=O)CC(C)(C)O2 [Compound 3] | – | – | – | IC50 [2]: 24.6 µM; IC50 [3]: 25.3 µM |
| CCCCCCCCNCc1ccc(OC)cc1 [Compound 5] | – | – | – | IC50 [4]: 1.3 µM; IC50 [5]: 5.8 µM |
| O=C1C=C(c2ccc(C(F)(F)F)cc2)S(=O)(=O)c2ccc(F)cc21 [Compound 6] | – | – | – | EC50 (L. (V) panamensis): < 10 µM |
| NC(=S)N/N=C1\CC(c2ccccc2)Sc2ccccc21 (stereo not shown) [Compound 7] | – | – | – | cytotoxicity (in words) [6]: low cytotoxicity; EC50 (L. (V) panamensis; acyl hydrazone derivatives): 5.1 µM |
| O=C(N/N=C1\CCSc2ccccc21)c1ccccc1 [Compound 8] | – | – | – | effect on parasite survival and infectivity (in words) (L. braziliensis): very effective; effect on parasite survival and infectivity (in words) (L. pifanoi): very effective |
| CC1(C)CC(=O)c2cc(COC(=O)C/C=C/c3ccccc3)ccc2S1 [Compound 10a, (2,2-Dimethyl-4-oxothiochroman-6-yl)methyl (E)-4-phenylbut-3-enoate] | 34.4 µM | >3.97 | > 136 µM | – |
| CC1(C)CC(=O)c2cc(COC(=O)/C=C/C=C/c3ccc4c(c3)OCO4)ccc2S1 [Compound 10b, (2,2-Dimethyl-4-oxothiochroman-6-yl)methyl (2E,4E)-5-(benzo[d][1,3]dioxol-5-yl)penta-2,4-dienoate] | 91.3 µM | 0.25 | 22.5 µM | – |
| CC1(C)CC(=O)c2cc(CNC(=O)C/C=C/c3ccccc3)ccc2S1 [Compound 11a, (E)-N-((2,2-Dimethyl-4-oxothiochroman-6-yl)methyl)-4-phenylbut-3-enamide] | 10.5 µM | 3.01 | 31.6 µM | activity against L. infantum (in words) [1]: notable anti-leishmanial activity |
| CC1(C)CC(=O)c2cc(CNC(=O)/C=C/C=C/c3ccc4c(c3)OCO4)ccc2S1 [Compound 11c, (2E,4E)-5-(Benzo[d][1,3]dioxol-5-yl)-N-((2,2-dimethyl-4-oxothiochroman-6-yl)methyl)penta-2,4-dienamide] | > 119 µM | – | > 119 µM | activity against L. infantum (in words) [1]: devoid of activity |
| CCCCCCCC(=O)NCc1ccc2c(c1)C(=O)CC(C)(C)S2 [Compound 11d, N-((2,2-Dimethyl-4-oxothiochroman-6-yl)methyl)octanamide] | 51.3 µM | 2.68 | 137 µM | – |
| CC1(C)CC(=O)c2cc(CNC(=O)CCCCCCCCBr)ccc2S1 [Compound 11e, 9-Bromo-N-((2,2-dimethyl-4-oxothiochroman-6-yl)methyl)nonanamide] | 7.2 µM | 8.06 | 58 µM | activity against L. infantum (in words) [1]: notable anti-leishmanial activity |
| CCCCNCc1ccc2c(c1)C(=O)CC(C)(C)S2 [Compound 12a, 6-((Butylamino)methyl)-2,2-dimethylthiochroman-4-one] | 26.5 µM | 1.25 | 33.2 µM | – |
| CCCCCCNCc1ccc2c(c1)C(=O)CC(C)(C)S2 [Compound 12b, 6-((Hexylamino)methyl)-2,2-dimethylthiochroman-4-one] | 23.1 µM | 1.12 | 25.8 µM | – |
| CCCCCCCCNCc1ccc2c(c1)C(=O)CC(C)(C)S2 [Compound 12c, 2,2-Dimethyl-6-((octylamino)methyl)thiochroman-4-one] | 19.5 µM | 1.16 | 22.6 µM | – |
| CCCCCCCCCCNCc1ccc2c(c1)C(=O)CC(C)(C)S2 [Compound 12d, 2,2-Dimethyl-6-((decylamino)methyl)thiochroman-4-one] | 12.4 µM | 1.86 | 23.1 µM | – |
| CCCCCCCCNCc1ccc2c(c1)C(=O)CC(C)(C)[S+]2[O-] (stereo not shown) [Compound 13, 2,2-Dimethyl-6-((octylamino)methyl)thiochroman-4-one 1-oxide] | 33.4 µM | 1.22 | 40.9 µM | – |
| CCCCCCCCNCc1ccc2c(c1)C(=O)CC(C)(C)S2(=O)=O [Compound 14, 2,2-Dimethyl-6-((octylamino)methyl)thiochroman-4-one 1,1-dioxide] | 33.8 µM | 1.27 | 42.8 µM | – |
| COc1cccc2c1C(=O)c1c(O)c3c(c(O)c1C2=O)C[C@@](O)(C(=O)CO)C[C@@H]3O[C@H]1C[C@H](N)[C@H](O)[C@H](C)O1 [Doxorubicin, reference compound] | – | – | 0.047 µM | – |
| (2,2-Dimethyl-4-oxothiochroman-6-yl)methyl-6-phenylhex-5-enoate [Compound 11b] | – | – | – | IC50 [1]: 19.9 µM; cytotoxicity to macrophages (in words) (J774A.1 cells; J774A.1, compared with activity against axenic amastigotes): comparably cytotoxic to macrophages; CC50 (J774A.1 cells; MTT, 72 h incubation, mean (standard deviation)): 14 µM |
